The source of these data is patent US4146720A, “N-Aminoethyl-substituted-3-nitronaphthalimides” (priority 1977, dated 1979).

The test system of series [1] is mouse. Nature of the series: Comparative toxicity study (LD0, LD50) and therapeutic index. The settings on record: for LD0 (zero lethal dose or maximal permissible dose): LD0 expressed in mg/mouse; for LD50: LD50 expressed in mg/mouse. An excerpt: (§1) In the study of the cytostatic action, 6-mercaptopurine was taken as the comparative anti-neoplastic drug.
Assay in series [2]: as above
The conditions noted are these: mouse, in vivo.
From the text: as §1

Series [3] deals with He-La cells and KB cells. Nature of the series: Cytostatic action on He-La cells and on KB cells, 6-mercaptopurine as comparative drug (Table 1). The class given is cell-based, human. Also on record: unit not given beside the values. The conditions noted are these: calculated using 6-mercaptopurine as the comparative drug (6-mercaptopurine = 1).
From the text: as §1

The test system of series [4] is Swiss I.C.R. albino mice. Nature of the series: Raticide/muricide action, drugs mixed with mice food for 7 days, Warfarin as comparative substance. The class given is in vivo, mouse (Swiss I.C.R. albino). The settings on record: for Dose to be taken in seven days: mixed with usual mice food at 1%, 0.5% and 0.1%, 7 days, oral; for Raticide and muricide action compared with Warfarin / Toxicity compared with Warfarin: in words. The procedure:
The four drugs were given to Swiss I.C.R. albino mice during 7 days. The administration was done by mixing the drugs with the usual mice food at concentrations of 1%, 0.5% and 0.1%. Two cribs were put in each cage: one with the usual mice food and the other containing food to which our drugs were added at the above mentioned concentrations. The food of both cribs was weighed daily in order to see if the animals could distinguish it. Warfarin (3-(α-acetonylbenzyl)-4-hydroxycoumarin) was used as the comparative substance.

The test system of series [5] is HeLa cells. Nature of the series: Cytotoxic activity on HeLa cells, comparison with corresponding 4-nitronaphthalimides. It counts as cell-based, human. The settings on record: relative; ID50 of 6-mercaptopurine is assigned the value "1"; 37° C., 72 hours; Lowry protein. The procedure: A series of tests has been carried out comparing the compounds of our invention with the corresponding 4-nitronaphthalimides, with respect to their cytotoxic activity on HeLa cells. The cytotoxic activity test was carried out in accordance with the procedure set forth in "R. I. Heral. Cancer Chemotherapy Report part III, Vol. III, No. 2".
HeLa cells are human cancer cells commonly used for investigating the cytotoxic activity of compounds. These HeLa cells are cultured by the single layer tissue culture technique on glass slides in the laboratories of the Spanish company, Laboratories Made, S.A., of Madrid, Spain, the assignee of this application.
In the tests, there was used an initial culture containing approximately 125000 HeLa cells per milliliter. The initial culture was dispersed with trypsin and was stirred to maintain the cells in suspension therein. Portions of equal volume of the suspension were placed in separate test tubes and to the test tubes were added the various compounds set forth below in various concentrations. There was employed as a standard for comparison, the compound 6-mercaptopurine, a known anti-neoplastic agent whose cytotoxic activity on HeLa cells is well known. As a control, there were also employed test tubes containing the suspension and to which no compound was added.
The contents of the test tubes were cultured at 37° C. for 72 hours. Then the contents of the various test tubes were examined by optical microscope to determine the approximate proportion of cells whose cellular growth was inhibited. Then, the protein content of each tube was determined by the Lowry method, as modified by Oyama and Eagle (Proc. Soc. Exptl. Biol. Med. 91, 305 (1956), and these values are compared with the corresponding values obtained in the control test tubes wherein no compound was added. Comparison of these measured protein values provides a further determination of the inhibition of cell growth caused by the test compounds. With the data obtained from the test tubes containing the same compound in various concentrations, a graph was prepared of concentration of compound versus inhibition of growth of HeLa cells. From this, there can be obtained the so-called ID50 value, that is, the dose of the compound that inhibits HeLa cellular growth by 50%. This is then compared with the results for the comparison compound 6-mercaptopurine. For purposes of comparison, the ID50 value of 6-mercaptopurine is assigned the value "1".

With `Sc1ncnc2nc[nH]c12` [6-mercaptopurine, reference compound], in series [1], the “LD0 (zero lethal dose or maximal permissible dose)” value (shortened to “LD0”) stood at 1 mg/mouse and the LD50 is 5 mg/mouse. In addition, the selectivity ratio in series [2] was 5.

For `O=C1c2cccc3cc([N+](=O)[O-])cc(c23)C(=O)N1CCN1CCCCC1` [Compound 1, N-[2-(N-piperidino)ethyl]-3-nitronaphthalimide], the “ID50 (50% inhibitory dose)” value in series [3] is reported as 2. Further, the “Dose to be taken in seven days” value in series [4] worked out at 80 mg/kg. In series [1], the “LD0” value turned out to be 0.5 mg/mouse and the LD50 came to 2 mg/mouse. Also, in series [5], the “ID50 (dose that inhibits HeLa cellular growth by 50%)” value came to 2.

Turning to `CCN(CC)CCN1C(=O)c2cccc3cc([N+](=O)[O-])cc(c23)C1=O` [Compound 2, N-(2-diethylaminoethyl)-3-nitronaphthalimide], in series [3], the “ID50 (50% inhibitory dose)” value is listed as 3. Further, in series [4], the “Raticide and muricide action compared with Warfarin” value was “great superiority over Warfarin as raticide and muricide agents”; the “Toxicity compared with Warfarin” value is on record as “more toxic”; the “Dose to be taken in seven days” value is 13 mg/kg. Also, in series [1], the “LD0” value was found to be 0.15 mg/mouse and the LD50 was 2 mg/mouse. The “ID50 (dose that inhibits HeLa cellular growth by 50%)” value in series [5] came to 3.

In the case of `CN(C)CCN1C(=O)c2cccc3cc([N+](=O)[O-])cc(c23)C1=O` [Compound 3, N-(2-dimethylaminoethyl)-3-nitronaphthalimide], the “ID50 (50% inhibitory dose)” value in series [3] was 0.15. Besides, in series [4], the “Raticide and muricide action compared with Warfarin” value was “great superiority over Warfarin as raticide and muricide agents”; the “Toxicity compared with Warfarin” value was “more toxic”; the “Dose to be taken in seven days” value is reported as 6.6 mg/kg. Moreover, in series [1], the “LD0” value is given as 0.2 mg/mouse and the LD50 came to 0.30 mg/mouse. Besides, in series [2], the selectivity ratio was found to be 2. In addition, in series [5], the “ID50 (dose that inhibits HeLa cellular growth by 50%)” value worked out at 0.15.

On to `O=C1c2cccc3cc([N+](=O)[O-])cc(c23)C(=O)N1CCN1CCCC1` [Compound 4, N-[2-(N-pyrrolidino)ethyl]-3-nitronaphthalimide], for which the “ID50 (50% inhibitory dose)” value in series [3] is 0.3. In series [4], the “Raticide and muricide action compared with Warfarin” value is “great superiority over Warfarin as raticide and muricide agents”; the “Toxicity compared with Warfarin” value was “more toxic”; the “Dose to be taken in seven days” value came to 6.6 mg/kg. For the same compound, in series [1], the “LD0” value came out at 0.2 mg/mouse and the LD50 was determined as 0.38 mg/mouse. Besides, the selectivity ratio in series [2] was 1.26. Moreover, the “ID50 (dose that inhibits HeLa cellular growth by 50%)” value in series [5] came out at 0.30.

With `O=C1c2cccc3c([N+](=O)[O-])ccc(c23)C(=O)N1CCN1CCCCC1` [N-[2-(N-piperidino)ethyl]-4-nitronaphthalimide, reference compound], the “ID50 (dose that inhibits HeLa cellular growth by 50%)” value in series [5] came out at 5.

As for `O=C1c2cccc3c([N+](=O)[O-])ccc(c23)C(=O)N1CCN1CCCC1` [N-[2-(N-pyrrolidino)ethyl]-4-nitronaphthalimide, reference compound], the “ID50 (dose that inhibits HeLa cellular growth by 50%)” value in series [5] was found to be 4.

Consider `CCN(CC)CCN1C(=O)c2cccc3c([N+](=O)[O-])ccc(c23)C1=O` [N-[2-diethylaminoethyl]-4-nitronaphthalimide, reference compound], for which the “ID50 (dose that inhibits HeLa cellular growth by 50%)” value in series [5] is 5.5.

Regarding `CN(C)CCN1C(=O)c2cccc3c([N+](=O)[O-])ccc(c23)C1=O` [N-[2-dimethylaminoethyl]-4-nitronaphthalimide, reference compound], the “ID50 (dose that inhibits HeLa cellular growth by 50%)” value in series [5] came out at 3.

In the case of `CC(=O)CC(c1ccccc1)c1c(O)c2ccccc2oc1=O` (stereo not drawn) [Warfarin, 3-(α-acetonylbenzyl)-4-hydroxycoumarin, reference compound], the “Dose to be taken in seven days” value in series [4] is 35 mg/kg.
